From US20240131032A1, “AN ACTIVITY-GUIDED MAP OF ELECTROPHILE-CYSTEINE INTERACTIONS IN PRIMARY HUMAN IMMUNE CELLS” (The Scripps Research Institute, priority 2019, published 2024)

Assays:
BIRC2 = BIRC2 (Homo sapiens, UniProt Q13490, C45A); assay: Western blot of BIRC2 content in human T cells; settings: EV-3 10 μM, AT-406 1 μM, 24 h; transfected primary human T cells
Method: All treatments were for 24 h.
All treatments were for 24 h. […] Plasmids expressing FLAG epitope-tagged versions of wild-type (WT) or the indicated cysteine-to-alanine mutants of BIRC2 (C45A) and BIRC3 (C28A) were co-transfected into primary human T cells with mCherry-expressing plasmid to control for transfection efficiency for 24 h. Cells were then treated with DMSO, EV-3 (10 μM), or AT-406 (1 μM) for 24 h and analyzed by anti-FLAG western blotting. […] (G) Quantitation of western blot data, where protein band intensity calculations were made using ImageJ software and represent the mean percentage of DMSO treated control±SEM; n=3 independent experiments per group. *p<0.05; **p<0.01 by two-tailed unpaired t test with Welch's correction compared to respective DMSO treatments.
Western blot analysis was performed on freshly isolated or expanded T cells. For Western blot protein degradation analysis, primary human T cells (2×10^7 cells/treatment) were re-suspended in RPMI media at 2×10^6 cells/mL and treated with the compounds or DMSO at 37° C. in a CO2 containing incubator for 24 h (or otherwise indicated times).

MYD88 = molecular target: T1, MYD88 (Homo sapiens, UniProt Q99836); assay: isoTOP-ABPP and TMT-ABPP cysteine engagement, MYD88; format: binding; settings: scout fragments
T1 construct: endogenous in cells
Method: Activated or expanded T cells were re-suspended in RPMI media supplemented with 10% FBS, L-glutamine (2 mM), penicillin (100 U/mL), and streptomycin (100 μg/mL) at 2×10^6 cells/mL. The compounds were added to cells as 1000×DMSO stocks and mixed well with the media by pipetting up and down after addition. The cells were kept at 37° C. in 5% CO2 containing incubators for 3 h (or otherwise specified times), then pelleted by centrifugation (524 g, 5 min, 4° C.), washed with cold PBS (10 mL) and transferred to Eppendorf tubes (1 mL PBS). The cells were pelleted again (524 g, 5 min, 4° C.), flash-frozen, and kept at −80° C. until further analysis.
Activated or expanded primary human T cells were re-suspended in RPMI (1×10^6 cells/mL) containing 10% fetal bovine serum (FBS), penicillin (100 U/mL), streptomycin ([…]), and L-glutamine (2 mM). The cells were treated with DMSO or compounds for 3 h, pelleted (524 g, 5 min), washed with PBS, and lysed by sonication (2×8 pulses). Soluble and particulate proteomic fractions were separated by ultracentrifugation (100,000 g, 45 min), and protein concentration was normalized to 1.7 mg/mL using a standard DC protein assay (Bio-Rad). The resulting proteomes were analyzed by competitive isotopic Tandem Orthogonal Proteolysis Activity-Based Protein Profiling (isoTOP-ABPP). […]
The heavy/light isoTOP-ABPP ratios (R values) for each unique peptide (DMSO/compound treated) were quantified with in-house CIMAGE software (Weerapana et al., 2010) using default parameters (3 MS1 acquisitions per peak and signal to noise threshold set to 2.5). Site-specific engagement of cysteine residues was assessed by blockade of IA-alkyne probe labeling. […] Ratios for unique peptide sequences were calculated for each experiment; overlapping peptides with the same modified cysteine (e.g., different charge states, elution times or tryptic termini) were grouped together and the median ratio was reported as the final ratio (R). […]

PDCD1 = molecular target: T2, PDCD1 (Homo sapiens, UniProt Q15116); assay: TMT-ABPP scout fragment sensitivity, PDCD1; format: binding; settings: activated T cells; 500 μM, 1 h
T2 construct: endogenous in cells
Excerpt: FIG. 2A-2J provides an overview of chemical proteomic mapping of fragment electrophile-cysteine interactions and reactivity changes in human T cells. […] This protocol was applied to both control and activated T cells. FIG. 2B are structures of scout fragments KB02 and KB05. FIG. 2C-FIG. 2D are pie chart representations of cysteines (C) and proteins (D) liganded with scout fragments. Results were obtained by combining soluble and particulate proteomic fraction data for KB02 and KB05 treatments (500 μM, 1 h) of both control and activated T cells. R-values within each experimental treatment group were derived from 3-5 independent isoTOP-ABPP experiments and 4 independent TMT-ABPP experiments (6 TMT channels). A cysteine was required to be quantified in at least two experiments for each compound treatment or proteomic fraction group to be reported. FIG. 2E are bar graphs showing the total number (left) and percentage (right) of liganded cysteines per total number of cysteines quantified across the indicated reactivity ranges, where cysteine reactivity was determined by isoTOP-ABPP experiments performed with different concentrations of the IA-alkyne probe (10 and 100 μM), as described previously (Weerapana et al., 2010). FIG. 2F are bar graphs showing the total number (left) and percentage (right) of liganded proteins with expression or reactivity changes in activated T cells. […]

primary human T cells [1] = assay: T cell viability by flow cytometry (near-IR LIVE/DEAD stain); format: cell-based; settings: concentration-dependent profiles, at <20 μM
Method: FIG. 4A-4D is an overview of a multidimensional screen to identify elaborated electrophilic compounds that suppress T cell activation. FIG. 4A is a workflow for T-cell activation screen. Primary human T cells were treated with a focused library of elaborated electrophilic compounds (10 μM, structures of compounds in FIG. 12), a positive control immunosuppressive compound (DMF, 50 μM), or DMSO under TCR-stimulating conditions in 96-well plates pre-coated with 5 μg/mL αCD3 and 2 μg/mL αCD28 for 24 h. T cell activation was measured using a combination of markers, including IL2 and IFNγ secretion, as well as surface expression of CD25 and CD69. T cell viability was measured by flow cytometry using a Fixable Near-IR LIVE/DEAD™ Cell Stain. Compounds were considered as active hits if they reduced IL2 cytokine production by >65% with <15% reduction in T cell viability in the cytotoxicity assay compared to DMSO control. […] FIG. 4C are structures of active hit compounds selected for follow-up studies, including two acrylamides (BPK-21, BPK-25), two chloroacetamides (EV-3, EV-93) and DMF as a positive control. FIG. 4D are line graphs showing T cell activation and cytotoxicity profiles for selected hit compounds.
Non-tissue culture treated 96-well plates were pre-coated with αCD3 (5 μg/mL) and αCD28 antibodies (2 μg/mL) in PBS (100 μL/well) and left at 4° C. overnight. Freshly isolated T cells were re-suspended in RPMI media supplemented with 10% FBS, L-glutamine (2 mM), penicillin (100 U/mL), and streptomycin ([…]) at 2×10^6 cells/mL. Compound stocks (200×) in DMSO were diluted to 2× stocks in the working RPMI media in another 96-well plate. The pre-coated 96-well treatment plates were washed with PBS ([…]), T cells (100 μL/well, 2×10^5 cells/well) were then added to the wells, followed by the addition of 2× compound stocks in RPMI media (100 μL). The outer wells of the plates were filled with media without cells to avoid the edge effect in the assay. The treatment was done overnight (24 h) at 37° C. in a 5% CO2 containing incubator. Following the treatment, the cells were transferred to a U-bottom 96-well plate and harvested by centrifugation (600 g, 3 min, 4° C.). The supernatants were kept and stored at −80° C. for further cytokine analysis, while the cells were washed with PBS (2×150 μL) prior to staining for flow cytometry analysis.
Following the PBS washes, the cells were stained with fixable near-IR LIVE/DEAD cell stain (Invitrogen) according to manufacturer's instructions. Briefly, one vial of near-IR LIVE/DEAD dye was resuspended in DMSO (50 μL) and diluted with PBS (1:1000). The diluted stain was added to each well (200 μL) and the cells were incubated for 30 min at room temperature in the dark. After this time, the cells were pelleted (600 g, 3 min, 4° C.), washed once with PBS (200 μL/well) and incubated with a freshly made cocktail of antibodies for the appropriate cell surface markers diluted in PBS containing 2% FBS (1:400 antibody dilution).

primary human T cells [2] = assay: Multidimensional screen for inhibition of T cell activation (IL-2, IFN-γ secretion, CD25, CD69 expression); format: cell-based; settings: anti-CD3/anti-CD28-stimulated T cells
Method: FIG. 4A-4D is an overview of a multidimensional screen to identify elaborated electrophilic compounds that suppress T cell activation. FIG. 4A is a workflow for T-cell activation screen. Primary human T cells were treated with a focused library of elaborated electrophilic compounds (10 μM, structures of compounds in FIG. 12), a positive control immunosuppressive compound (DMF, 50 μM), or DMSO under TCR-stimulating conditions in 96-well plates pre-coated with 5 μg/mL αCD3 and 2 μg/mL αCD28 for 24 h. T cell activation was measured using a combination of markers, including IL2 and IFNγ secretion, as well as surface expression of CD25 and CD69. T cell viability was measured by flow cytometry using a Fixable Near-IR LIVE/DEAD™ Cell Stain. Compounds were considered as active hits if they reduced IL2 cytokine production by >65% with <15% reduction in T cell viability in the cytotoxicity assay compared to DMSO control. […]
The levels of secreted IL2, IFNγ and TNFα after incubating T cells in the presence of DMSO or electrophilic compounds under TCR-stimulating conditions were measured using DuoSet ELISA cytokine kits (R&D Systems) in clear microplates (R&D Systems) according to manufacturer's instructions and read using a CLARIOstar (BMG Labtech) plate reader (450 nm). All cytokine concentrations were calculated according to the standard curve generated for each experiment.

T1 sequence (Q99836 whole entry, the tested form may be a part): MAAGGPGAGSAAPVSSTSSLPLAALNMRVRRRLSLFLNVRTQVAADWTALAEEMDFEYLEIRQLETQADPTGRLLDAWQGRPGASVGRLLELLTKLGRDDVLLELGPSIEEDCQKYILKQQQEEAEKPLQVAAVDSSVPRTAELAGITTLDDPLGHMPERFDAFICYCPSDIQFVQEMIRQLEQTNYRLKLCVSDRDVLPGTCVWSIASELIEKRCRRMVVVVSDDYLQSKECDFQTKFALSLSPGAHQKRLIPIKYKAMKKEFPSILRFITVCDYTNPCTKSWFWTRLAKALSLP
Sequence of BIRC2 (Q13490 whole entry C45A, the tested form may be a part): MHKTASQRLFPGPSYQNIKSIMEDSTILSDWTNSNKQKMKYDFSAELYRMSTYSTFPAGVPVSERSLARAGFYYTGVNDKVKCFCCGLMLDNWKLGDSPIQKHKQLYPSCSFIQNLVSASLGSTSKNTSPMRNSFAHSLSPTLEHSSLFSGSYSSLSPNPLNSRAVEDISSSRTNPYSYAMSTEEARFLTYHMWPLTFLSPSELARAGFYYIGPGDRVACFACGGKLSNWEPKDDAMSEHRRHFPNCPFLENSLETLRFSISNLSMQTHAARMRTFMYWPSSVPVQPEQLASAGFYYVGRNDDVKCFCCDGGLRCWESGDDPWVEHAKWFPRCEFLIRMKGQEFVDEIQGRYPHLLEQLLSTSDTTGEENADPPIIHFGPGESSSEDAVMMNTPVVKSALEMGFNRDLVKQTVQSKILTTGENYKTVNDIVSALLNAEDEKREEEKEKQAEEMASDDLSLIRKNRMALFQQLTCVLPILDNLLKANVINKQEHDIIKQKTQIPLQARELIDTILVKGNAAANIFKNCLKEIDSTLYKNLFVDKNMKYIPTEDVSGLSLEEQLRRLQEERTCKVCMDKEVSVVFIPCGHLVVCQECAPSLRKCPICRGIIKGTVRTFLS
T2 sequence (Q15116 25-288): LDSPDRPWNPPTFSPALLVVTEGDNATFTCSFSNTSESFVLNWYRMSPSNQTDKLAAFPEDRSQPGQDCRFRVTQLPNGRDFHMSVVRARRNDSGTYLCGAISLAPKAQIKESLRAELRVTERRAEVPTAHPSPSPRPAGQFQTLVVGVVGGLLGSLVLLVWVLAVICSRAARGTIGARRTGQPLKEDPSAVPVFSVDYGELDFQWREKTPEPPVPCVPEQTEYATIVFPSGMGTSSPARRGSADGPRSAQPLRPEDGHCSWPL

## CN[C@@H](C)C(=O)N[C@H]1CN(C(=O)CC(C)C)CC[C@H]2CC[C@@H](C(=O)NC(c3ccccc3)c3ccccc3)N2C1=O [AT406]
BIRC2
  FLAG-tagged BIRC2 C45A mutant content: still promotes the degradation

## C=CC(=O)N(c1ccccc1)c1ccc(Br)cc1 [KB05]
MYD88
  modification of MYD88 at either C274 or C280 (tryptic peptide 270-282): covalently modified

## COc1ccc2c(c1)CCCN2C(=O)CCl [KB02]
MYD88
  modification of MYD88 at either C274 or C280 (tryptic peptide 270-282): covalently modified
PDCD1
  sensitivity of C93 of PDCD1: KB02-sensitivity

## O=C(c1cccc(N2CCOCC2)c1)N1CCC(N(C(=O)CCl)c2ccccc2)C(Cc2ccccc2)C1 (stereo not drawn) [EV-93]
Primary human T cells [1]
  cytotoxicity: negligible cytotoxicity

## CCCCS(=N)(=O)CCC(N)C(=O)O (stereo not drawn) [BSO, buthionine sulphoximine]
Primary human T cells [2]
  effect on T cell activation: did not affect T cell activation
